The target in data set [1] is T1, Cytochrome P450 11B1, mitochondrial (Homo sapiens, UniProt P15538).
T1 sequence (P15538 whole entry): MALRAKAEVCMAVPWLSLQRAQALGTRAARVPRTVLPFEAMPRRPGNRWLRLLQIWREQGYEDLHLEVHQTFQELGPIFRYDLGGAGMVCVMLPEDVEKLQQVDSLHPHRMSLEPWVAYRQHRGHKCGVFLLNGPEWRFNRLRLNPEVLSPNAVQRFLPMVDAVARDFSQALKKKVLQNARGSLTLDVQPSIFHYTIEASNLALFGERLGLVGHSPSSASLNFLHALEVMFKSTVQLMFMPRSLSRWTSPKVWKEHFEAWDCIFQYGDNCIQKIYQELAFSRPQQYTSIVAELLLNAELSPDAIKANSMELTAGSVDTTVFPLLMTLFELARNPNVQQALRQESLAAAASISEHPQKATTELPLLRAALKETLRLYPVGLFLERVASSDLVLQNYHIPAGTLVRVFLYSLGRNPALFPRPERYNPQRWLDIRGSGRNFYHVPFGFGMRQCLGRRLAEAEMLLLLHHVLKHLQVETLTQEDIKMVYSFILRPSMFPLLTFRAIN
Description: Inhibition of human CYP11B1 expressed in hamster V79MZ cells using 11-deoxycorticosterone substrate. The class given is cell-based.

Data set [2] concerns the target T2, Cytochrome P450 11B2, mitochondrial (Homo sapiens, UniProt P19099).
T2 sequence (P19099 whole entry): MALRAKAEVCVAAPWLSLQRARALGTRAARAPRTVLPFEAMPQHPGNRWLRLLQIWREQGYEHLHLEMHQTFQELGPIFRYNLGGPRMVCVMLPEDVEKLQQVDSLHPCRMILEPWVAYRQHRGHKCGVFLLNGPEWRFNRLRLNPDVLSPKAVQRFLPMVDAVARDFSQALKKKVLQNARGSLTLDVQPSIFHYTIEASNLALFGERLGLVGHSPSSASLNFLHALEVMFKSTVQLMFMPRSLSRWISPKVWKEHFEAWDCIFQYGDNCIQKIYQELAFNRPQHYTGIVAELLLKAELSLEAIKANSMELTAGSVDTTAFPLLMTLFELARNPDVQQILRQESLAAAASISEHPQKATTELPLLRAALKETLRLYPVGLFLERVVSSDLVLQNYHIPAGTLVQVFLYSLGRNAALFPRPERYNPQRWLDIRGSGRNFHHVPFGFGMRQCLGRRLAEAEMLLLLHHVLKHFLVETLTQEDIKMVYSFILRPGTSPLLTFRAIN
Briefly: Inhibition of human CYP11B2 expressed in hamster V79MZ cells using 11-deoxycorticosterone substrate. The class given is cell-based.

Another data set is filed under the species Homo sapiens. Briefly: Selectivity index, ratio of IC50 for human CYP11B2 to IC50 for human CYP11B1.
The target of data set [3] is T3, Steroid 17-alpha-hydroxylase/17,20 lyase (Homo sapiens, UniProt P05093).
T3 sequence (P05093 whole entry): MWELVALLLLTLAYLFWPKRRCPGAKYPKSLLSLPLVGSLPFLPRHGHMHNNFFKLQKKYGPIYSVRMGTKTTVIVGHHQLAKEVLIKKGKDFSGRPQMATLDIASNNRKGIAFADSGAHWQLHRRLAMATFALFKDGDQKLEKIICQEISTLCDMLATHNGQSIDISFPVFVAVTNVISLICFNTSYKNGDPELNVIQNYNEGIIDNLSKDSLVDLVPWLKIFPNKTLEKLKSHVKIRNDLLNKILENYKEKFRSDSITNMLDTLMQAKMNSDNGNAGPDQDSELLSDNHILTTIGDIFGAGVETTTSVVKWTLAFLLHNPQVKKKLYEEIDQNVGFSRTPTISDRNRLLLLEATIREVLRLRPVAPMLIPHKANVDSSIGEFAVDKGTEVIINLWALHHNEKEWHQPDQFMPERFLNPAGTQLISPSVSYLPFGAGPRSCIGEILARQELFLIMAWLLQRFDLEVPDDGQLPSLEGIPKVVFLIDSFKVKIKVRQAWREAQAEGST
Briefly: Inhibition of human recombinant CYP17 expressed in Escherichia coli at 2 uM using progesterone substrate. To be noted: 2 µM.

The target of a further data set is T4, Aromatase (Homo sapiens, UniProt P11511).
T4 sequence (P11511 whole entry): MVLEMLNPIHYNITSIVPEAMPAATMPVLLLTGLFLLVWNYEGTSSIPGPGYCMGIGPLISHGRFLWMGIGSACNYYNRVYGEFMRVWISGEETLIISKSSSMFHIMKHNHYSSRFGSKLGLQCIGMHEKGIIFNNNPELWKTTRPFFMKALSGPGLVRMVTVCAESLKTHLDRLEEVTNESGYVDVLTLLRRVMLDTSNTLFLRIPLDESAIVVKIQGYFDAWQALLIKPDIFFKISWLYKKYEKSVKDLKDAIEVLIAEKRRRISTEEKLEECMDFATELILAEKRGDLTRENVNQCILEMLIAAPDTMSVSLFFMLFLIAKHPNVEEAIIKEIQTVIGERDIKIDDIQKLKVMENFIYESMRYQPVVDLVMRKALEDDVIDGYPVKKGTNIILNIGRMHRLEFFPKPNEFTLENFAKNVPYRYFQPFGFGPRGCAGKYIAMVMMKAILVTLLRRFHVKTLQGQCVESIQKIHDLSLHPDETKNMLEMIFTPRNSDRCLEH
Description: (§1) Inhibition of human placental microsomes CYP19 at 500 nM using androstenedione substrate. To be noted: 0.5 µM.

In another data set the target is T5, CYP19 (aromatase) (Homo sapiens, UniProt P11511).
T5 sequence (P11511 whole entry): T4 sequence (P11511 whole entry)
The data set is described as §1. The settings on record: human placental microsomes, probe androstenedione.

The structures appear in SMILES notation.

Turning to `Cc1cc(C)cc(Cn2cnc3ccccc32)c1`, the IC50 in data set [1] was determined as 0.188 µM; in data set [2] it was 0.632 µM. Moreover, the Ratio IC50 in the data set filed under Homo sapiens stood at 3.4. Further, the “inhibition (INH)” value (in data set [3]; against Aromatase) was “Not Active” in each case.
Take `Cc1ccccc1Cn1ccnc1`: the IC50 in data set [1] is 0.061 µM; in data set [2], 0.062 µM. Also, in the data set filed under Homo sapiens, the Ratio IC50 was 1. The “inhibition (INH)” value in data set [3] is listed as “Not Active”. For the same molecule, on CYP19 (aromatase), the inhibition at 0.5 µM was 12%.
For the molecule `c1ccc(Cn2ccnc2)cc1`, the IC50 in data set [1] was 0.135 µM; in data set [2], 0.456 µM. Besides, the Ratio IC50 in the data set listed under Homo sapiens is 3.4. Further, the “inhibition (INH)” value (in data set [3]; at Aromatase) was “Not Active” each time.
For the molecule `Cc1cc(C)cc(Cn2ccnc2)c1`, the IC50 in data set [1] was 0.032 µM; in data set [2] it was 0.077 µM. Further, the Ratio IC50 in the data set filed under Homo sapiens was 2.4. Also, the “inhibition (INH)” value in data set [3] is “Not Active”. Besides, the inhibition at 0.5 µM at CYP19 (aromatase) came to 38%.
Consider `c1ccc(C(Cn2ccnc2)(c2ccccc2)c2ccccc2)cc1`, for which the IC50 in data set [1] was found to be 0.004 µM; in data set [2] it was 0.008 µM. In addition, the Ratio IC50 in the data set filed under Homo sapiens stood at 2. For the same molecule, the “inhibition (INH)” value in data set [3] is recorded as “Not Active”. This molecule had an inhibition at 0.5 µM at CYP19 (aromatase) of 38%.
In the case of `c1ccc(C(c2ccccc2)(c2ccccc2)n2cnc3ccccc32)cc1`, the IC50 in data set [1] and in data set [2] was above 1 µM throughout. Moreover, the “inhibition (INH)” value (in data set [3]; against Aromatase) was “Not Active” each time.
For `Cc1cc(C)c(Cn2cnc3ccccc32)c(C)c1`, the IC50 in data set [1] and in data set [2] was above 1 µM in each case. Also, the “inhibition (INH)” value (in data set [3]; against Aromatase) was “Not Active” in each case.
Turning to `CCOC(=O)c1cncn1[C@H](C)c1ccccc1` [ETOMIDATE], the IC50 in data set [2] was 0.0001 µM. The Ratio IC50 in the data set listed under Homo sapiens was 0.5. Moreover, the “inhibition (INH)” value (in data set [3]; against Aromatase) was “Not Active” each time.
In the case of `c1cn(CC23CC4CC(CC(C4)C2)C3)cn1`, the figures for the IC50 in data set [1] and in data set [2] were 0.005 µM and 0.03 µM, respectively. Also, the Ratio IC50 in the data set filed under Homo sapiens turned out to be 5.9. Besides, on CYP19 (aromatase), at 0.5 µM the inhibition was 12%.
Turning to `c1ccc(-c2cccc(Cn3cnc4ccccc43)c2)cc1`, the IC50 in data set [1] was 0.369 µM; in data set [2] it was 2.23 µM. In the data set filed under Homo sapiens, the Ratio IC50 was found to be 6. Moreover, the “inhibition (INH)” value (in data set [3]; against Aromatase) was “Not Active” in each case.
For the molecule `c1ccc(-c2cc(Cn3cnc4ccccc43)cc(-c3ccccc3)c2)cc1`, the IC50 in data set [1] and in data set [2] was above 1 µM each time. Further, the “inhibition (INH)” value (in data set [3]; at Aromatase) was “Not Active” in each case.
As for `Cc1ccc(Cn2cnc3ccccc32)cc1`, the IC50 is 0.5 µM in data set [1] and 0.52 µM in data set [2]. For the same molecule, in the data set listed under Homo sapiens, the Ratio IC50 came to 1. The “inhibition (INH)” value (in data set [3]; against Aromatase) was “Not Active” in each case.
For the molecule `c1ccc(C(Cn2cnc3ccccc32)(c2ccccc2)c2ccccc2)cc1`, the IC50 in data set [1] and in data set [2] was above 1 µM each time. In addition, the “inhibition (INH)” value (in data set [3]; against Aromatase) was “Not Active” each time.
For the molecule `Cc1cccc(Cn2cnc3ccccc32)c1`, the IC50 in data set [1] worked out at 0.194 µM; in data set [2], 0.309 µM. Also, the Ratio IC50 in the data set listed under Homo sapiens was 1.6. In addition, the “inhibition (INH)” value (in data set [3]; against Aromatase) was “Not Active” throughout.
For the molecule `Clc1ccc(Cn2ccnc2)cc1`, the IC50 came to 0.14 µM in data set [1] and 0.046 µM in data set [2]. Further, in the data set filed under Homo sapiens, the Ratio IC50 came out at 0.3. In addition, the “inhibition (INH)” value (in data set [3]; on Aromatase) was “Not Active” in each case.
`Clc1ccc(Cn2cnc3ccccc32)cc1`: the values for the IC50 in data set [1] and in data set [2] were 0.635 µM and 0.107 µM, respectively. Further, the Ratio IC50 in the data set listed under Homo sapiens came to 0.2. Further, the “inhibition (INH)” value (in data set [3]; against Aromatase) was “Not Active” throughout.
Take `c1ccc(-c2csc(Cn3ccnc3)c2)cc1`: the IC50 was 0.019 µM in data set [1] and 0.277 µM in data set [2]. Further, the Ratio IC50 in the data set listed under Homo sapiens worked out at 15. The molecule also gave an inhibition at 0.5 µM against CYP19 (aromatase) of 72%.
In the case of `c1ccc(-c2ccc(Cn3cnc4ccccc43)cc2)cc1`, the 50% inhibitory concentration (IC50) in data set [1] was found to be 0.197 µM; in data set [2], 1.9 µM. The Ratio IC50 in the data set listed under Homo sapiens turned out to be 10. Besides, the “inhibition (INH)” value (in data set [3]; at Aromatase) was “Not Active” in each case.
Consider `c1ccc(-c2ccccc2Cn2cnc3ccccc32)cc1`, for which the IC50 in data set [1] and in data set [2] was above 1 µM in each case. In addition, the “inhibition (INH)” value (in data set [3]; against Aromatase) was “Not Active” throughout.
Consider `c1ccc(Cn2cnc3ccccc32)cc1`, for which the IC50 stood at 0.246 µM in data set [1] and 0.865 µM in data set [2]. For the same molecule, in the data set listed under Homo sapiens, the Ratio IC50 was found to be 3.5. Also, the “inhibition (INH)” value (in data set [3]; against Aromatase) was “Not Active” throughout.
In turn, `c1ccc2c(c1)ncn2CC12CC3CC(CC(C3)C1)C2` displayed an IC50 in data set [1] of 0.075 µM. Moreover, the “inhibition (INH)” value in data set [3] is listed as “Not Active”. This molecule returned an inhibition at 0.5 µM at CYP19 (aromatase) of 12%.
On to `Cc1c(C)c(C)c(Cn2cnc3ccccc32)c(C)c1C`, for which the IC50 in data set [1] and in data set [2] was above 1 µM throughout. Besides, the “inhibition (INH)” value (in data set [3]; on Aromatase) was “Not Active” throughout.
Take `c1ccc(C(CCn2cnc3ccccc32)(c2ccccc2)c2ccccc2)cc1`: the IC50 in data set [1] and in data set [2] was above 1 µM in each case. Moreover, the “inhibition (INH)” value (in data set [3]; against Aromatase) was “Not Active” throughout.
Take `Cc1ccc(Cn2ccnc2)cc1`: the values for the IC50 in data set [1] and in data set [2] were 0.258 µM and 0.32 µM, respectively. In addition, the Ratio IC50 in the data set listed under Homo sapiens is 1.2. In addition, the “inhibition (INH)” value (in data set [3]; on Aromatase) was “Not Active” in each case.
For `c1ccc(-c2ccc(Cn3ccnc3)cn2)cc1`, in the data set listed under Homo sapiens, the Ratio IC50 is 18. The molecule also showed an inhibition at 0.5 µM against CYP19 (aromatase) of 0%.
For `CC(C)(C(=O)c1cccnc1)c1cccnc1` [METYRAPONE], the “inhibition (INH)” value (in data set [3]; against Aromatase) was “Not Active” each time.
Take `Cc1cc(C)c(Cn2ccnc2)c(C)c1`: the IC50 in data set [1] amounted to 0.024 µM; in data set [2], 0.03 µM. In the data set filed under Homo sapiens, the Ratio IC50 is 1.3. The “inhibition (INH)” value (in data set [3]; against Aromatase) was “Not Active” each time.
As for `Cc1ccccc1Cn1cnc2ccccc21`, the IC50 in data set [1] stood at 0.779 µM; in data set [2], 0.262 µM. Further, the Ratio IC50 in the data set filed under Homo sapiens was found to be 0.3. In addition, the “inhibition (INH)” value (in data set [3]; against Aromatase) was “Not Active” in each case.

A word on the IC50: it is the concentration that inhibits the measured activity by half. Low readings indicate higher potency, high ones lower potency. For orientation: inhibition means the share of the control response that was lost under treatment. A higher inhibition goes with a response far below the control.

Source of the values: ChEMBL document CHEMBL1649094, “First Selective CYP11B1 Inhibitors for the Treatment of Cortisol-Dependent Diseases” (ACS Med Chem Lett, 2011).
